The values that follow come from the NIST ThermoML archive (doi:10.1021/je3005408).

In general, vapor or sublimation pressure refers to the equilibrium pressure above the liquid or solid.

The conditions of the data set: Liquid, Ebulliometric method (Recirculating still).

The structures appear in SMILES notation. ± gives the expanded uncertainty stated by the source.

With `C1CCCCC1` [cyclohexane], the “vapor or sublimation pressure” value (317.95 K) turned out to be 29.77 ± 0.34 kPa, the “vapor or sublimation pressure” value (336.85 K) came out at 58.85 ± 0.77 kPa and the “vapor or sublimation pressure” value (349.15 K) was found to be 87.65 ± 1.2 kPa.

With `CCCCOC(C)=O` [butyl ethanoate], the “vapor or sublimation pressure” value reads like this: (361.65 K) 29.77 ± 0.34 kPa; (381.35 K) 58.85 ± 0.79 kPa; (394.25 K) 87.65 ± 1.3 kPa.
